Here are results for four molecules from patent publication US20170112737A1, “COSMETICS AND PHARMACEUTICAL APPLICATIONS OF GALLIC ACID AND GALLIC ACID DERIVATIVES” (GREENPHARMA, priority 2014, published 2017).

What all share (type): cell-based, human
One experiment deals with MMP-1. As to the kind of experiment: ELISA of MMP-1 release by reconstructed skins in depleted medium. To be noted: reconstructed skins in depleted culture medium, 30 μg/ml and 60 μg/ml, D9. As for the experimental part:
(§1) Human skins reconstructed from a culture of keratinocytes sowed on a collagen lattice containing fibroblasts. Depleted culture medium: Epilife and supplements (without IGF-1 and without hydrocortisone)+CaCl2 1.5 mM+vitamin C (50 μg/ml). The reconstructed skins have been placed during the passage at the air-liquid interface (D0) in a 6-well plate in the depleted culture medium containing, or not (deficient control condition), the tested compounds. Afterwards, the reconstructed skins have been cultured for 9 days with the renewal of the culture medium containing, or not, the tested compounds every 2 to 3 days from D0 to D5, and then every day between D5 and D9. In parallel, a culture of the reconstructed skins in a complete medium has been realized, as a control test. The evaluation of the tested compound has been performed: • By histological analysis, by the histological observation of the epidermal thickness after HES (Hematoxylin-Eosin-Saffron) staining, • By RT-qPCR, by analysis of the expression of 16 markers (2 of which are reference genes) selected for their importance in cutaneous ageing, on the mRNAs extracted from the reconstructed skins for each treatment, and • By quantifying the release of MMP-1, MMP-3 and procollagen I in the suspensions of the cultures on D9, by ELISA assay, using ELISA assay kits used according to the instructions of the supplier.
On the technique in general: ELISA stands for enzyme-linked immunosorbent assay.

Experiment [1] deals with reconstructed skins. As to the kind of experiment: RT-qPCR of cutaneous ageing markers in reconstructed skins in depleted medium. The note with it: reconstructed skins in deficient medium, 30 μg/ml and 60 μg/ml, dose-dependent. The protocol: as §1, with “fibroblasts. The keratinocytes are cultured at 37° C., 5% CO2, at the air-liquid interface in one of the following media:” for “fibroblasts.”, “μg/ml). The following cultures have been realized: • Untreated reconstructed skins, • Skins reconstructed in a depleted medium, • Skins reconstructed in a depleted medium, each treated by a compound tested hereinabove, at a concentration of 30 μg/ml or 60 μg/ml.” for “μg/ml).”, “test. All experimental conditions have been realized with n=4.” for “test.”
(In general: Quantitative PCR measures a nucleic acid by following its amplification.)

The subject of another experiment is procollagen I. As to the kind of experiment: ELISA of procollagen I release by reconstructed skins in depleted medium. The note with it: reconstructed skins in depleted culture medium, 30 μg/ml and 60 μg/ml, D9. The protocol: as §1
Experiment [2] concerns reconstructed skins. As to the kind of experiment: Histological analysis (HES) of reconstructed skins in depleted medium. To be noted: 30 μg/ml and 60 μg/ml, 9 days. The protocol: Human skins reconstructed from a culture of keratinocytes sowed on a collagen lattice containing fibroblasts. The keratinocytes are cultured at 37° C., 5% CO2, at the air-liquid interface in one of the following media: Depleted culture medium: Epilife and supplements (without IGF-1 and without hydrocortisone)+CaCl2 1.5 mM+vitamin C (50 μg/ml). The following cultures have been realized: • Untreated reconstructed skins, • Skins reconstructed in a depleted medium, • Skins reconstructed in a depleted medium, each treated by a compound tested hereinabove, at a concentration of 30 μg/ml or 60 μg/ml. […] The evaluation of the tested compound has been performed: • By histological analysis, by the histological observation of the epidermal thickness after HES (Hematoxylin-Eosin-Saffron) staining, • By RT-qPCR, by analysis of the expression of 16 markers (2 of which are reference genes) selected for their importance in cutaneous ageing, on the mRNAs extracted from the reconstructed skins for each treatment, and • By quantifying the release of MMP-1, MMP-3 and procollagen I in the suspensions of the cultures on D9, by ELISA assay, using ELISA assay kits used according to the instructions of the supplier.

A further experiment has as its system MMP-3. As to the kind of experiment: ELISA of MMP-3 release by reconstructed skins in depleted medium. To be noted: reconstructed skins in depleted culture medium, 30 μg/ml and 60 μg/ml, D9. The protocol:
as §1

For experiment [3], the system named is TGK. Put plainly: TGK immunolabeling in situ in NHEK cultures (Example 3). The note with it: 72 hours; for TGK Fluorescence intensity/Number of cells: individual values (n=3); for TGK expression in the NHEK cultures (in words): activity higher than CaCl2 reference as by 10 μg/ml. The protocol:
Normal human epidermal keratinocytes (NHEK); reference BIOalternatives K341, used at the third passage. Culture conditions: 37° C., 5% CO2 Culture medium: keratinocytesSFM complemented with an epidermal growth factor (EGF) 0.25 ng/ml, a pituitary extract (PE) 25 μg/ml and gentamycin […]. Experiment medium: keratinocytesSFM complemented with gentamycin 25 μg/ml. The keratinocytes have been sowed and cultured to confluence in 96-well plates and then, the medium has been replaced by an experiment medium containing, or not (control test), the tested extract or the reference (CaCl2 at 1.5 mM) and the cells have been incubated for 72 hours. All experimental conditions have been realized with n=3, for each marker. After incubation, the test medium has been withdrawn and the cells have been rinsed, fixed and permeabilized. The cells have been marked with the primary antibodies directed against the considered proteins (TGK). […] In parallel, the nucleuses of the cells have been stained by the Hoechst 33258 (bisbenzimide). The acquisition of the images has been carried out with a high-resolution imaging system, INCell AnalyzerTM 1000 (GE Healthcare). For each well, 5 captures of digitized images have been performed. The labelings have been quantified by measurement of the fluorescence intensity of the proteins divided by the number of nucleuses identified by the Hoechst (integration of the digital data by the software Developer Toolbow 1.5, GE Healthcare).

Experiment [4] has as its system TGK. As to the kind of experiment: TGK immunolabeling in situ in NHEK cultures, loosestrife extracts (Example 5). The note with it: 72 hours, 1.5 mM. As for the experimental part: Normal human epidermal keratinocytes (NHEK); reference BIOalternatives K341, used at the third passage.
Culture conditions: 37° C., 5% CO2
Culture medium: keratinocytesSFM complemented with an epidermal growth factor (EGF) 0.25 ng/ml, a pituitary extract (PE) 25 μg/ml and gentamycin 25 μg/ml.
Experiment medium: keratinocytesSFM complemented with gentamycin 25 μg/ml.
The keratinocytes have been sowed and cultured to confluence in 96-well plates and then, the medium has been replaced by an experiment medium containing, or not (control test), the tested extract or the reference (CaCl2 at 1.5 mM) and the cells have been incubated for 72 hours. All experimental conditions have been realized with n=3, for each marker.
After incubation, the test medium has been withdrawn and the cells have been rinsed, fixed and permeabilized. […] The acquisition of the images has been carried out with a high-resolution imaging system, INCell Analyzer™ ([…] (GE Healthcare). For each well, 5 captures of digitized images have been performed. The labelings have been quantified by measurement of the fluorescence intensity of the proteins divided by the number of nucleuses identified by the Hoechst (integration of the digital data by the software Developer Toolbow 1.5, GE Healthcare). […]
The TGK expression is given as the Fluorescence intensity/Number of cells (UA)

“And” between values parts separate entries of the source, which are not always exact repeats. Equal values may be shown once.

Turning to `O=C1OC[C@H]2OC(=O)c3cc(O)c(O)c(O)c3-c3c(O)c(O)c(O)c4c3C(=O)O[C@H]([C@H]3OC(=O)c5c-4c(O)c(O)c(O)c5[C@@H]3O)[C@@H]2OC(=O)c2cc(O)c(O)c(O)c2-c2c1cc(O)c(O)c2O` [Vescalagin], the “release of MMP-1 (ELISA)” value with MMP-1 was “major and significant decrease”. In the experiment on reconstructed skins [1], the “expression of the inflammation markers (RT-qPCR)” value was “decrease of the expression of IL1B and PTGS2 to a lesser extent”; the “expression of the marker of the extracellular matrix COLIA1 (RT-qPCR)” value is “increase of the expression of the marker of the extracellular matrix COLIA1”; the “expression of the markers involved in the degradation of the extracellular matrix (RT-qPCR)” value is “decrease of the expression of the genes MMP1, MMP3 and TFPI2”; the “expression of the markers of the cells of the basal layer (RT-qPCR)” value was “increase of the marker of the cell cycle MKI67”. The “expression of the more tardive markers of the differentiation of the keratinocytes (RT-qPCR)” value in the experiment with reconstructed skins [1] was “decrease of the expression of TGM1 and CDSN”. In addition, the “release of procollagen I (ELISA)” value in the experiment on procollagen I was “No modification”. Moreover, in the experiment on reconstructed skins [2], the “epidermis/dermis cohesion (HES)” value was “Partial recovery of the epidermis/dermis cohesion” and the “histology (HES)” value is reported as “improvement of their histology”. Also, the “release of MMP-3 (ELISA)” value in the experiment with MMP-3 is “major and significant decrease”. Also, in the experiment with TGK [3] (0.0011 mg/ml), the “TGK % Control test” value is 287%; the “TGK % Stimulation” value came out at 187%; the “TGK Fluorescence intensity/Number of cells, Average” value is recorded as 17722 UA; the “TGK Fluorescence intensity/Number of cells” value is 22033 UA and 16688 UA and 14446 UA. Also, in the experiment on TGK [3] (0.003 mg/ml), the “TGK % Control test” value is reported as 589%; the “TGK % Stimulation” value was found to be 589%; the “TGK Fluorescence intensity/Number of cells, Average” value turned out to be 42460 UA; the “TGK Fluorescence intensity/Number of cells” value was 32859 UA and 40124 UA and 54396 UA. Also, in the experiment with TGK [3] (0.01 mg/ml), the “TGK % Control test” value came to 702%; the “TGK % Stimulation” value was determined as 602%; the “TGK Fluorescence intensity/Number of cells, Average” value worked out at 43284 UA; the “TGK Fluorescence intensity/Number of cells” value was 27714 UA and 45383 UA and 98755 UA. Further, in the experiment with TGK [3], the “TGK expression in the NHEK cultures (in words)” value (shortened to “TGK expression … (in words)”) is “induce the TGK expression in the NHEK cultures in a dose-dependent fashion”.

Take `O=C(O)c1cc(O)c(O)c(O)c1` [Gallic acid, gallic acid]: in the experiment on TGK [3] (0.0003 mg/ml), the “TGK % Control test” value came to 285%; the “TGK % Stimulation” value was determined as 165%; the “TGK Fluorescence intensity/Number of cells, Average” value stood at 16260 UA; the “TGK Fluorescence intensity/Number of cells” value is 18328 UA and 15263 UA and 15730 UA. In the experiment with TGK [3] (0.01 mg/ml), the “TGK % Control test” value was determined as 688%; the “TGK % Stimulation” value amounted to 588%; the “TGK Fluorescence intensity/Number of cells, Average” value worked out at 42738 UA; the “TGK Fluorescence intensity/Number of cells” value was 47924 UA and 36228 UA and 44065 UA. Further, in the experiment with TGK [3] (0.03 mg/ml), the “TGK % Control test” value is on record as 1110%; the “TGK % Stimulation” value worked out at 1019%; the “TGK Fluorescence intensity/Number of cells, Average” value is reported as 60518 UA; the “TGK Fluorescence intensity/Number of cells” value is 73870 UA and 53013 UA and 81670 UA. The “TGK expression … (in words)” value in the experiment on TGK [3] was “induce the TGK expression in the NHEK cultures in a dose-dependent fashion”.

Regarding `[Ca+2].[Cl-].[Cl-]` [CaCl2, reference compound], in the experiment with TGK [4], the “TGK expression Average (Fluorescence intensity/Number of cells)” value came to 69610 UA and the “TGK expression, Control test %” value is 316%. In the experiment on TGK [3] (1.5 mM), the “TGK % Control test” value was 473%; the “TGK % Stimulation” value came to 373%; the “TGK Fluorescence intensity/Number of cells, Average” value is on record as 29160 UA; the “TGK Fluorescence intensity/Number of cells” value is 24066 UA and 30013 UA and 23527 UA. In the experiment with TGK [3] (1.5 mM, listed as Ca), the “TGK Fluorescence intensity/Number of cells” value was 22987 UA and 24146 UA and 32180 UA; the “TGK % Control test” value came to 425%; the “TGK % Stimulation” value is given as 325%; the “TGK Fluorescence intensity/Number of cells, Average” value is reported as 20404 UA.

Regarding `O=C1OC[C@H]2OC(=O)c3cc(O)c(O)c(O)c3-c3c(O)c(O)c(O)c4c3C(=O)O[C@H]([C@H]3OC(=O)c5c-4c(O)c(O)c(O)c5[C@H]3O)[C@@H]2OC(=O)c2cc(O)c(O)c(O)c2-c2c1cc(O)c(O)c2O` [Castalagin], in the experiment on TGK [3] (0.0011 mg/ml), the “TGK % Control test” value is recorded as 202%; the “TGK % Stimulation” value came out at 162%; the “TGK Fluorescence intensity/Number of cells, Average” value came out at 16135 UA; the “TGK Fluorescence intensity/Number of cells” value is 21020 UA and 15623 UA and 11760 UA. For the same molecule, in the experiment on TGK [3] (0.003 mg/ml), the “TGK % Control test” value was 436%; the “TGK % Stimulation” value is recorded as 330%; the “TGK Fluorescence intensity/Number of cells, Average” value is 26867 UA; the “TGK Fluorescence intensity/Number of cells” value was 30752 UA and 20672 UA and 23177 UA. Also, in the experiment on TGK [3] (0.01 mg/ml), the “TGK % Control test” value came to 714%; the “TGK % Stimulation” value is recorded as 614%; the “TGK Fluorescence intensity/Number of cells, Average” value is 44055 UA; the “TGK Fluorescence intensity/Number of cells” value is 59547 UA and 22164 UA and 50453 UA. In the experiment with TGK [3], the “TGK expression … (in words)” value is reported as “induce the TGK expression in the NHEK cultures in a dose-dependent fashion”.
